Experimental data reported in ChEMBL document CHEMBL3091330, “Discovery of 3,4-Dihydropyrimidin-2(1H)-ones As a Novel Class of Potent and Selective A2B Adenosine Receptor Antagonists” (ACS Med Chem Lett, 2013).

Experiments:
Adenosine receptor A2a [1] = target: T1, Adenosine receptor A2a (Homo sapiens, UniProt P29274); assay: Displacement of [3H]ZM241385 from adenosine A2A receptor in human HeLa cells at 10 uM after 30 mins; format: cell-based
[2] = target: T2, Adenosine receptor A1 (Homo sapiens) (UniProt P30542); assay: Displacement of [3H]DPCPX from human adenosine A1 receptor expressed in CHO cells at 10 uM after 60 mins; format: cell-based
T2 sequence (whole entry): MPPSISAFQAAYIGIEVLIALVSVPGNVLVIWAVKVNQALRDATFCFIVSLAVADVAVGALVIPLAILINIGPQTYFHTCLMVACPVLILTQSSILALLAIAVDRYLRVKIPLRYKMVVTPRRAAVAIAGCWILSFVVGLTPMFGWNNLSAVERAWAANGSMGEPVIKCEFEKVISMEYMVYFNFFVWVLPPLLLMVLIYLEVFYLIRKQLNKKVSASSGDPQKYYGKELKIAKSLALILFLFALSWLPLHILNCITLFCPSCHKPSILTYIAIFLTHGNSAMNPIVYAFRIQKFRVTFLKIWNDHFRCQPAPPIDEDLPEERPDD

[3] = target: T3, Adenosine receptor A3 (Homo sapiens) (UniProt P0DMS8); assay: Displacement of [3H]NECA from adenosine A3 receptor in human HeLa cells at 10 uM after 180 mins; format: cell-based
T3 sequence (whole entry): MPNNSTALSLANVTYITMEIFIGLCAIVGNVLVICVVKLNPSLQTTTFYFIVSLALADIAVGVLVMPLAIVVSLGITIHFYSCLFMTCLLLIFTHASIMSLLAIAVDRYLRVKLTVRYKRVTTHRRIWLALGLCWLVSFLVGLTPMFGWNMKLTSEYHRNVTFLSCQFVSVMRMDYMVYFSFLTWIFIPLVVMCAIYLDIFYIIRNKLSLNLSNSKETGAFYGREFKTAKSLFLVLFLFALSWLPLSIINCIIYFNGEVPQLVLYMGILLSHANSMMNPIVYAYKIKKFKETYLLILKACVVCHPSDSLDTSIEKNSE

Adenosine receptor A2b = target: T4, Adenosine receptor A2b (Homo sapiens, UniProt P29275); assay: Displacement of [3H]DPCPX from human adenosine A2B receptor expressed in HEK293 cells after 30 mins by Scatchard plot analysis; format: cell-based
T4 sequence (P29275 whole entry): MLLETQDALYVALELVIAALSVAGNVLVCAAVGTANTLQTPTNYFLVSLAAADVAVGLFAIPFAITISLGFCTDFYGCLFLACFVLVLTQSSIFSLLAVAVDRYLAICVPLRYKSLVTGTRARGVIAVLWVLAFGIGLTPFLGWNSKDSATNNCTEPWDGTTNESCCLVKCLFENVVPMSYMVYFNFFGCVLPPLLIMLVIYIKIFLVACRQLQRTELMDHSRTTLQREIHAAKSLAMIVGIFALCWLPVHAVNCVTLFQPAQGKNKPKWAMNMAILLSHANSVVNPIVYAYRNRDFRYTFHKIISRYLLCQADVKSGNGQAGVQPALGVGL

[4] = target: T5, Adenosine receptor A2b (Homo sapiens) (UniProt P29275); assay: Displacement of [3H]DPCPX from human from adenosine A2B receptor in HEK293 cells at 10 uM after 30 mins by Scatchard plot analysis; format: cell-based
T5 sequence (whole entry): T4 sequence (P29275 whole entry)

Adenosine receptor A3 = target: T6, Adenosine receptor A3 (Homo sapiens, UniProt P0DMS8); assay: Displacement of [3H]NECA from adenosine A3 receptor in human HeLa cells after 180 mins; format: cell-based
T6 sequence (P0DMS8 whole entry): T3 sequence (whole entry)

Adenosine receptor A2a [5] = target: T1, Adenosine receptor A2a; assay: Displacement of [3H]ZM241385 from adenosine A2A receptor in human HeLa cells after 30 mins; format: cell-based
Cytochrome P450 3A4 = Cytochrome P450 3A4 (Homo sapiens, UniProt P08684); assay: Inhibition of human recombinant CYP3A4 expressed in baculosomes at 100 fold Ki; format: ADME; settings: recombinant enzyme
Chain of Cytochrome P450 3A4 (P08684 whole entry): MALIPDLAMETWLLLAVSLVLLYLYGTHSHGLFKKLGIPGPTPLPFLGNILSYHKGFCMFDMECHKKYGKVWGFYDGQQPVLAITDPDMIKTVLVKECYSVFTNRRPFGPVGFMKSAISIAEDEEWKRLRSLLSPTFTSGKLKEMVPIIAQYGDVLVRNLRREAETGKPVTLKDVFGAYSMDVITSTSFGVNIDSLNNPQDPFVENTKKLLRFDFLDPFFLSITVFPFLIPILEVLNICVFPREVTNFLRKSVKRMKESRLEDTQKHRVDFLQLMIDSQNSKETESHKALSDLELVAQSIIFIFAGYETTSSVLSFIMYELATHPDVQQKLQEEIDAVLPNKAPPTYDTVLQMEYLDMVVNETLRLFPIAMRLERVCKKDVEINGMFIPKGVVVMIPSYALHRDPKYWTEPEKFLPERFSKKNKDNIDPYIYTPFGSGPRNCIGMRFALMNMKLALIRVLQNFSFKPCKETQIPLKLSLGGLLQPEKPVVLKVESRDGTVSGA

[6] = target: T5, Adenosine receptor A2b (Homo sapiens); assay: Antagonist activity at human adenosine A2B receptor expressed in HEK293 cells assessed as inhibition of NECA-stimulated cAMP accumulation incubated for 15 mins prior to NECA-challenge measured after 15 mins by spectrophotometry; format: functional, cell-based
Adenosine receptor A1 = target: T7, Adenosine receptor A1 (Homo sapiens, UniProt P30542); assay: Displacement of [3H]DPCPX from human adenosine A1 receptor expressed in CHO cells after 60 mins; format: cell-based
T7 sequence (P30542 whole entry): T2 sequence (whole entry)

Cytochrome P450 1A2 = target: T8, Cytochrome P450 1A2 (Homo sapiens, UniProt P05177); assay: Inhibition of human recombinant CYP1A2 expressed in baculosomes at 100 fold Ki; format: ADME; settings: recombinant enzyme
T8 sequence (P05177 whole entry): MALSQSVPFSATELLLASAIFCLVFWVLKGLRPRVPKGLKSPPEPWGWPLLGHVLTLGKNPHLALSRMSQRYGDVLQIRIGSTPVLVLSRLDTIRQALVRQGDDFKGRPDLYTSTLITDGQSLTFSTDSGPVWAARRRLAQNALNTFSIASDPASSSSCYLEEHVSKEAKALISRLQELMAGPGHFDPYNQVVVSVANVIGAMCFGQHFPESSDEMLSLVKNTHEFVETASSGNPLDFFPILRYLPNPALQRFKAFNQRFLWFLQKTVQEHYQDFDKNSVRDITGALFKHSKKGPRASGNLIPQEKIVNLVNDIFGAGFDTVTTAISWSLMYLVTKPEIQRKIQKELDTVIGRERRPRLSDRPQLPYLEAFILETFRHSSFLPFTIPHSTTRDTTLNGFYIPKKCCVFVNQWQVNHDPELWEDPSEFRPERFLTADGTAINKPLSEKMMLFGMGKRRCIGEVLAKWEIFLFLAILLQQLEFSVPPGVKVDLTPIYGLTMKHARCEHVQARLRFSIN

T1 sequence (P29274 whole entry): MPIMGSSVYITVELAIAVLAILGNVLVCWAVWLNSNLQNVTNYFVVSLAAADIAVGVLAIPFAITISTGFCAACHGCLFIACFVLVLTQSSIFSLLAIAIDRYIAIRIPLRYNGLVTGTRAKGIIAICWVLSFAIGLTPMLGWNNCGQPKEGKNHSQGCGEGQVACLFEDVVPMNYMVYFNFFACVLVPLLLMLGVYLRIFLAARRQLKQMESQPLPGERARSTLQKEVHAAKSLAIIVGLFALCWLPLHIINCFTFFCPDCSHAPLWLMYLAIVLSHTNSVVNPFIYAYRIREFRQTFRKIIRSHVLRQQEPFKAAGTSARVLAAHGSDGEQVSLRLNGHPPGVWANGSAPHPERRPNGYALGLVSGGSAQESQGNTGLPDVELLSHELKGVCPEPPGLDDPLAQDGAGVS

SMILES | inhibition (Adenosine receptor A2a [1]) | inhibition [2] | inhibition [3] | Ki (Adenosine receptor A2b) | inhibition [4] | Ki (Adenosine receptor A3) | Ki (Adenosine receptor A2a [5]) | inhibition (INH) (Cytochrome P450 3A4) | Kb [6] | Ki (Adenosine receptor A1) | inhibition (INH) (Cytochrome P450 1A2)
CCOC(=O)C1=C(C)N(C)C(=O)NC1c1ccco1 (racemic) | 5% | 17% | 25% | 6540 nM | – | – | – | – | – | – | –
CC1=C(C(=O)OC(C)C)C(c2cccs2)NC(S)=N1 (racemic) | 15% | 23% | 20% | 1570 nM | – | – | – | – | – | – | –
CC(=O)C1=C(C)NC(=O)NC1c1ccco1 (racemic) | 21% | 30% | 14% | – | 38% | – | – | – | – | – | –
CC1=C(C(=O)OC(C)C)C(c2ccsc2)NC(=S)N1 (racemic) | 20% | 16% | 3% | 416 nM | – | – | – | – | – | – | –
CC1=C(C(=O)OC(C)C)C(c2ccsc2)NC(=O)N1 (racemic) | 25% | 26% | 5% | 56.6 nM | – | – | – | – | – | – | –
CCOC(=O)C1=C(C)NC(=S)NC1c1ccoc1 (racemic) | 25% | 18% | 15% | 43.1 nM | – | – | – | – | – | – | –
CCOC(=O)C1=C(C)N(C)C(=O)NC1c1cccs1 (racemic) | 3% | 2% | 6% | – | 11% | – | – | – | – | – | –
CC1=C(C(=O)OC(C)C)C(c2ccoc2)NC(=O)N1 (racemic) | 26% | 25% | 3% | 1490 nM | – | – | – | – | – | – | –
CC1=C(C(=O)OC(C)C)C(c2ccco2)NC(=O)N1C (racemic) | 31% | 28% | 18% | 1150 nM | – | – | – | – | – | – | –
CC1=C(C(=O)OC(C)C)C(c2cccs2)NC(=O)N1 (racemic) | 19% | 37% | 14% | – | 44% | – | – | – | – | – | –
CC1=C(C(=O)Nc2ccccc2)C(c2ccco2)NC(=O)N1 (racemic) | 7% | 24% | 5% | – | 31% | – | – | – | – | – | –
CCOC(=O)C1=C(C)NC(=O)N(C(C)=O)C1c1ccco1 (racemic) | 24% | 19% | 1% | 3110 nM | – | – | – | – | – | – | –
CCOC(=O)C1=C(C)NC(=O)NC1c1ccco1 (racemic) | 31% | 15% | 2% | 586 nM | – | – | – | – | – | – | –
CC1=C(C(=O)OC(C)C)C(c2ccoc2)NC(=S)N1 (racemic) | 33% | 18% | 23% | 194 nM | – | – | – | – | – | – | –
CC1=C(C(=O)OC(C)C)C(c2cccs2)NC(=O)N1C (racemic) | 24% | 22% | 18% | – | 28% | – | – | – | – | – | –
CCOC(=O)C1=C(C)NC(=O)NC1c1ccsc1 (racemic) | 34% | 16% | 11% | 23.6 nM | – | > 10000 nM | > 10000 nM | Not Active | 25.2 nM | > 10000 nM | Not Active
CC1=C(C(=O)OC(C)C)C(c2ccoc2)NC(=O)N1C (racemic) | 2% | 23% | 1% | – | 35% | – | – | – | – | – | –
CCOC(=O)C1=C(C)N=C(S)NC1c1cccs1 (racemic) | 23% | 2% | 4% | 6250 nM | – | – | – | – | – | – | –

SMILES | inhibition (Adenosine receptor A2a [1]) | inhibition [2] | inhibition [3] | Ki (Adenosine receptor A2b) | inhibition [4] | Ki (Adenosine receptor A3) | Ki (Adenosine receptor A2a [5]) | inhibition (INH) (Cytochrome P450 3A4) | Kb [6] | Ki (Adenosine receptor A1) | inhibition (INH) (Cytochrome P450 1A2)
CCOC(=O)C1=C(C)N=C(S)NC1c1ccsc1 (racemic) | 28% | 23% | 2% | 1100 nM | – | – | – | – | – | – | –
CC1=C(C(=O)OC(C)C)C(c2ccsc2)NC(=O)N1C (racemic) | 20% | 33% | 14% | 1810 nM | – | – | – | – | – | – | –
CCCOC(=O)C1=C(C)NC(=O)NC1c1ccco1 (racemic) | 55% | 43% | 2% | 206 nM | – | – | – | – | – | – | –
CCOC(=O)C1=C(C)NC(=O)NC1c1cccs1 (racemic) | 33% | 3% | 2% | – | 39% | – | – | – | – | – | –
CC1=C(C(=O)OC(C)C)C(c2ccco2)NC(=S)N1 (racemic) | 18% | 15% | 4% | 10.2 nM | – | > 10000 nM | > 10000 nM | Not Active | 4.7 nM | > 10000 nM | Not Active
CCOC(=O)C1=C(CC)NC(=O)NC1c1ccco1 (racemic) | 41% | 29% | 3% | 715 nM | – | – | – | – | – | – | –
CCOC(=O)C1=C(C)NC(=O)NC1c1ccoc1 (racemic) | 24% | 21% | 1% | 39.6 nM | – | – | – | – | – | – | –
CCCC1=C(C(=O)OCC)C(c2ccco2)NC(=O)N1 (racemic) | – | 50% | 19% | 256 nM | – | – | 602 nM | – | – | – | –
CCOC(=O)C1=C(c2ccccc2)NC(=O)NC1c1ccco1 (racemic) | 17% | 3% | 2% | – | 28% | – | – | – | – | – | –
CCOC(=O)C1=C(C(F)(F)F)NC(=O)NC1c1ccco1 (racemic) | 32% | 15% | 2% | – | 2% | – | – | – | – | – | –
CCOC(=O)c1c(-c2ccco2)nc(=O)[nH]c1C | 11% | 6% | 15% | 3430 nM | – | – | – | – | – | – | –
CC1=C(C(=O)OC(C)C)C(c2ccco2)NC(=O)N1 (racemic) | 23% | 18% | 4% | 40.8 nM | – | – | – | – | – | – | –
CC1=C(C(N)=O)C(c2ccco2)NC(=O)N1 (racemic) | 1% | 2% | 2% | – | 2% | – | – | – | – | – | –
CC1=C(C(=O)OC(C)(C)C)C(c2ccco2)NC(=O)N1 (racemic) | 7% | 4% | 7% | – | 44% | – | – | – | – | – | –
COC(=O)C1=C(C)NC(=O)NC1c1ccco1 (racemic) | 25% | 34% | 13% | 2160 nM | – | – | – | – | – | – | –
CCOC(=O)C1=C(C)N=C(S)NC1c1ccco1 (racemic) | 32% | 1% | 5% | 608 nM | – | – | – | – | – | – | –
CCOC(=O)C1=C(C)N(C)C(=O)NC1c1ccsc1 (racemic) | 24% | 30% | 3% | 2970 nM | – | – | – | – | – | – | –
CCOC(=O)C1=C(C)N(C)C(=O)NC1c1ccoc1 (racemic) | 24% | 17% | 1% | 4260 nM | – | – | – | – | – | – | –
